From publication PMC11889359, “Site-Specific Competitive Kinase Inhibitor Target Profiling Using Phosphonate Affinity Tags” (Molecular & Cellular Proteomics : MCP, 2025)
Like-named read-outs stand apart in the source and are kept apart here.

Columns and labels:
[1] = biological target: T1, epithelial discoidin domain-containing receptor 1 (DDR1) (Homo sapiens, UniProt Q08345); test: Competitive site-specific PhosID-ABPP with XO44 in intact A549 cells; type: binding; conditions: apparent IC50, pepsin-based analysis, n = 3, read-out: IC50 DDR1;K655
T1 construct: endogenous in cells; host or cells: cultured cells treated intact (A549 per the earlier reading)
T1 sequence (Q08345 19-913): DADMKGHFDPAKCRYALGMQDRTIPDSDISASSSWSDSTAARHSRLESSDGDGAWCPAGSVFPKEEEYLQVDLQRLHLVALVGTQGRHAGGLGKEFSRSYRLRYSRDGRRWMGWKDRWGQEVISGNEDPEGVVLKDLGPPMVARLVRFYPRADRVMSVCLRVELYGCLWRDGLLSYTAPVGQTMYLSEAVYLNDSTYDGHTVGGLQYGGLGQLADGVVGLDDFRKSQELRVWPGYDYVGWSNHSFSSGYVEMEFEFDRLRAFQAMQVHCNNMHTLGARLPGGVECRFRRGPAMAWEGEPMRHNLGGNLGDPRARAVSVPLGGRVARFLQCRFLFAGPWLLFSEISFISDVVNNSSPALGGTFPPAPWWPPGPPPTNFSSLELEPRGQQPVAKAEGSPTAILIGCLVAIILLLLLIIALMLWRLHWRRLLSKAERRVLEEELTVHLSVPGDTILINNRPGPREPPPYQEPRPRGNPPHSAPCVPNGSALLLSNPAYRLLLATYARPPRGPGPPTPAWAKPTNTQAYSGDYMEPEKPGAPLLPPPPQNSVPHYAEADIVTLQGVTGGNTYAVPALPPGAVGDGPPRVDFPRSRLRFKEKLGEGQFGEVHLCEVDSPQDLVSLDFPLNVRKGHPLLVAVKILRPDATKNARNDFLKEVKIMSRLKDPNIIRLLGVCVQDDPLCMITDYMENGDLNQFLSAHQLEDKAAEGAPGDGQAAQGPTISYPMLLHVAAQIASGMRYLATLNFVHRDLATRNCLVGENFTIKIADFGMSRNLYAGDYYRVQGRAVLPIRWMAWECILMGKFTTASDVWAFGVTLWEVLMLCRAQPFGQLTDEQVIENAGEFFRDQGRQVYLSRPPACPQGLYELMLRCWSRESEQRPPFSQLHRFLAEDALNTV
Protocol: (§1) 1e^6 cells were plated in 15 cm plates (Greiner) 3 days before treatment and kept in a humidified atmosphere with 5% CO2 at 37 °C. The growth medium was replaced by 10 ml treatment [DMEM with 0.5% FBS and 100 units/ml PS supplemented with the corresponding concentration of NVP-BHG712 (Sigma-Aldrich) or DMSO] and incubated at 37 °C, 5% CO2 for 3 h. Then, 10 μl 25 mM XO44 (PF-6808472, Sigma-Aldrich) was added directly to the medium and swirled to enable dissolution. Subsequently, the cells were incubated at 37 °C, 5% CO2 for 4 h. The samples for Supplemental Fig. S1 were generated by directly incubating with 25 μM XO44-containing growth medium for 4 h.
(§2) After treatment, the cells were washed with ice-cold DPBS and harvested using a cell scraper in 1 ml ice-cold DPBS. Then, the cell suspension was spun down at 2000g for 1 min, and the supernatant was aspirated. The cell pellet was snap-frozen in liquid nitrogen and stored at −80 °C for later use.
(§3) Cell pellets were lysed in 500 μl lysis buffer per 15 cm plate of cells, consisting of 50 mM Hepes (Sigma-Aldrich, pH 7.5), 0.5% NP-40 (Applichem), 0.2% SDS (Gen-Apex), 2 mM MgCl2 (Sigma-Aldrich), 10 mM NaCl (Merck), 1× protease inhibitor cocktail (Roche), and 0.5 μl/ml Benzonase (Millipore). Cell lysates were incubated at room temperature for 15 min to allow DNA cleavage. Cell debris and DNA were spun down for 30 min at 20,567g at 16 °C. The supernatant was collected, and the protein concentration was determined by a bicinchoninic acid assay (Thermo Fisher Scientific).
(§4) The copper(I)-catalyzed azide-alkyne cycloaddition (CuAAC) was performed on cellular lysates in 2 M urea (Merck) in 1× 50 mM Hepes (pH 7.5). CuAAC components were added in the following order: 5 mM tris(3-hydroxypropyltriazolylmethyl)amine (Lumiprobe), 2.5 mM CuSO4 5·H2O (Sigma-Aldrich), 500 μM phosphonate-azide (prepared as described in van Bergen et al., 2023 ([28])), and 25 mM sodium ascorbate (Sigma-Aldrich). Samples were incubated for 2 h at room temperature while rotating. Methanol–chloroform precipitation was performed to remove the CuAAC components, and the air-dried pellets were resuspended in 8 M urea and sonicated in a bioruptor (Diagenode) with the high amplitude setting for 10 min with cycles of 30 s on and 30 s off.
(§5) Clicked and dissolved protein samples were diluted to 4M urea with 50 mM ammonium bicarbonate (pH 8, AmBic, Sigma-Aldrich). The proteins were reduced with 4 mM DTT (Sigma-Aldrich) for 60 minutes at room temperature and alkylated in the dark using 8 mM iodoacetamide (Sigma-Aldrich) for 30 min. Residual iodoacetamide was quenched by adding DTT to a final concentration of 4 mM.
(§6) Next, samples were diluted 2× with 50 mM AmBic and digested with LysC (1:75 enzyme to protein ratio, Wako) for 4 h at 37 °C. Finally, proteins were digested overnight using Trypsin (1:50, enzyme to protein ratio, Sigma-Aldrich) at 37 °C. Proteolysis with chymotrypsin was performed similarly to the trypsin digestion, only replacing both proteolytic enzymes with α-chymotrypsin (bovine, 1:75, enzyme to protein ratio, Sigma-Aldrich) overnight at 37 °C. Digested material was desalted using 3 cc C18 Seppak cartridges (Waters) and air dried using a vacuum centrifuge.
(§7) For the digestion with pepsin, protease incubation (Porcine, 1:50, enzyme to protein ratio, Sigma-Aldrich) was performed for 4 h at 37 °C in 40 mM HCl (pH 2). Digested material was directly desalted using 3 cc C18 Seppak cartridges and air dried using a vacuum centrifuge.
(§8) Samples were dephosphorylated prior to immobilized metal affinity chromatography (IMAC) enrichment. Desalted peptides were dissolved in 1× rCutSmart buffer (pH 8, New England BioLabs) and incubated with 50 units of alkaline phosphatase (calf intestinal, QuickCIP, New England BioLabs) overnight at 37 °C while shaking. After dephosphorylation, all peptides were again desalted using 3 cc C18 Seppak cartridges and air-dried using a vacuum centrifuge. […]

[2] = biological target: T2, inosine-5′-monophosphate dehydrogenase 2 (IMPDH2) (Homo sapiens, UniProt P12268); test: as above; type: binding; conditions: apparent IC50, competition with XO44 on lysine 450, n = 3, read-out: IC50 IMPDH2;K450
T2 construct: endogenous in cells; host or cells: cultured cells treated intact (A549 per the earlier reading)
T2 sequence (P12268 2-514 limits assumed): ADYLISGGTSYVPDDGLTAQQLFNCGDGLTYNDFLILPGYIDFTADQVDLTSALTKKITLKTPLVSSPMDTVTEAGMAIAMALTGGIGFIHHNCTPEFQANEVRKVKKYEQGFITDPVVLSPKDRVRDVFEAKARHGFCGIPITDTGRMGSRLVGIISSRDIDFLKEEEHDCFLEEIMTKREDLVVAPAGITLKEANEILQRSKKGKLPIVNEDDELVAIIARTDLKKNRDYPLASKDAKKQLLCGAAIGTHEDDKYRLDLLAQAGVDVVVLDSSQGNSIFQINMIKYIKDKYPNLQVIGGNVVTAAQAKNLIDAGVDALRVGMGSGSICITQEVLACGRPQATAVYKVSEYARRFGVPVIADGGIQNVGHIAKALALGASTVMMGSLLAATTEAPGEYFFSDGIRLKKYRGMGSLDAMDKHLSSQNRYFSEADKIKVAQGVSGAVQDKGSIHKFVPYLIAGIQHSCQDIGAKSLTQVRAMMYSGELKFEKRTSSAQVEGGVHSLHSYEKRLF
Protocol: as §1, §2, §3, §4, §5, §6, §7, §8

[3] = biological target: T3, neurotrophic receptor tyrosine kinase 3 (NTRK3) (Homo sapiens, UniProt Q16288); test: as above; type: binding; conditions: 0.1 nM to 25 µM inhibitor, pepsin
T3 construct: endogenous in cells; host or cells: cultured cells treated intact (A549 per the earlier reading)
T3 sequence (Q16288 32-839): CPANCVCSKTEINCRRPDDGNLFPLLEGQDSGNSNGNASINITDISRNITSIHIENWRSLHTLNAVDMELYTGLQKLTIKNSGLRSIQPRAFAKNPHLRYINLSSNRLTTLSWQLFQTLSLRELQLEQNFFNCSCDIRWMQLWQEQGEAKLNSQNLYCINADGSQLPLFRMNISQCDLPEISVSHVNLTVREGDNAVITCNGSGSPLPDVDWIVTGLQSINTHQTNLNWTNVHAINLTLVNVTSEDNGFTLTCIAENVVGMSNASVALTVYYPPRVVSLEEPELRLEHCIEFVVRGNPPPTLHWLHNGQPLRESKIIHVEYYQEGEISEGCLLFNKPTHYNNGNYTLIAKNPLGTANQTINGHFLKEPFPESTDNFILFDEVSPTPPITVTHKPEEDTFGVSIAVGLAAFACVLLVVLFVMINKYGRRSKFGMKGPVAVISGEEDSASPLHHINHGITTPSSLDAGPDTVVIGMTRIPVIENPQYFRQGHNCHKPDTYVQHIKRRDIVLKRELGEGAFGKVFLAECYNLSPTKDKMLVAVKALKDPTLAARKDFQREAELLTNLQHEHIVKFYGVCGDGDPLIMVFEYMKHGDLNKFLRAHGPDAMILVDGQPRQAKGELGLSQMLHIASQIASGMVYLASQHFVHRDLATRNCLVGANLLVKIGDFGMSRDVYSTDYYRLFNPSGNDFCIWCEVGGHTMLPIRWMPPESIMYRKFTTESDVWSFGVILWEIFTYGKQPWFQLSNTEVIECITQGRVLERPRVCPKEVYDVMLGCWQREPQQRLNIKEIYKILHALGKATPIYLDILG
Protocol: as §1, §2, §3, §4, §5, §6, §7, §8

[4] = biological target: T4, proto-oncogene tyrosine-protein kinase src (SRC) (Homo sapiens, UniProt P12931); test: as above; type: binding; conditions: 0.1 nM to 25 µM inhibitor, trypsin and pepsin
T4 construct: endogenous in cells; host or cells: cultured cells treated intact (A549 per the earlier reading)
Protocol: as §1, §2, §3, §4, §5, §6, §7, §8

[5] = test system: apoptosis signal-regulating kinases 1-3 (MAP3K5/6/15); test: as above; type: binding, human; conditions: apparent IC50, nonunique peptide, n = 3, read-out: IC50 MAP3K5/6/15 (nonunique peptide: MAP3K5;K709, MAP3K6;K677, MAP3K15;K681)
Protocol: as §1, §2
as §3, with “Cell lysates were incubated at room temperature for 15 min to allow DNA cleavage. Cell debris and DNA were spun down for 30 min at 20,567g at 16 °C.” left out, “Scientific). […]” for “Scientific).”

[6] = biological target: EphA2; set-up: method as in PMID 29928781; conditions: read-out: Literature value for EphA2, microscale thermo-phoresis; cited from earlier work
[7] = test system: EphA2; set-up: method as in PMID 29928781; conditions: read-out: Literature value for EphA2, NanoBRET assay; cited from earlier work
[8] = biological target: EphA2; set-up: method as in PMID 29928781; conditions: read-out: Literature value for EphA2, kinobeads; cited from earlier work
[9] = test system: EphB4; set-up: method as in PMID 20803239; conditions: cellular autophosphorylation; cited from earlier work
[10] = test system: DDR1; set-up: method as in PMID 36799129; conditions: cited from earlier work

For NVP-BHG712, the IC50 [1] was 2.1 nM, the IC50 [2] was 9600 nM and the “MaxLFQ signal of XO44-bound NTRK3;K572 over the concentration range” value [3] was “stable MaxLFQ signal over the full concentration range”. The “Interaction with ATP-binding pocket, SRC;K298 signal across the concentration range” value [4] was “do not interact”, the IC50 [5] was 9700 nM and the Kd [6] was 13 nM. For the same substance, the IC50 [7] was 3 nM, the Kd [8] was 240 nM and the IC50 [9] was 25 nM. The “Binding to DDR1 in kinobeads profiling” value [10] was “does not bind”.
